{"source": "patent US11167039B2", "about": "“MET antibody drug conjugates” (priority 2016, dated 2021)", "key": {"[1]": {"system": "AOSMC", "test": "Cell killing, non-tumor AOSMC", "type": "cell-based, human", "set-up": "key: Sensitive; Resistant", "conditions": "aortic smooth muscule cell", "protocol": "(§1) Briefly described, 2-3×10^3 cells/well in 100 μL of culture medium may be plated in 96 well plates and incubated overnight at 37° C., 5% CO2. The MET-ADCs, MET antibody(ies), control MMAE or control hIgG4 conjugated to MMAE with cysteine conjugation antibody(ies) may be diluted 1:3 in serum-free culture medium starting from 100 nM (final) in 50 μL as 3× concentrations to the HT-29 cells. At the end of an additional 5-6 days of cell growth at 37° C. in a humidified incubator with 5% CO2, the plates may be equilibrated to room temperature for 30 minutes and 100 μL/well of CellTiter-Glo® reagent (Promega Corp., Fitchburg, Wis.) may then be added to assess cell viability. Cell viability may be determined by measuring luminescence.\n(§2) Various tumor cell lines and normal human cells may be tested for MET-ADC induced cell killing activity essentially as described above in Example 10 as assessed for MET receptor density. MET cell surface density was determined by indirect immunofluorescence staining of cell surface antigens on cultured cells using QIFIKIT (Dako). […] Following a forty-five minute incubation, cells may be incubated for 1 hour on ice with FITC conjugated antibody diluted 1:50 in FACS buffer. Then cells may be washed and receptor numbers may be determined by indirect immunofluorescence staining of the QIFIKIT beads using a Becton Dickinson LSRII flow cytometer."}, "[2]": {"system": "SW 1990", "test": "Cell killing, SW 1990", "type": "cell-based, human", "set-up": "key: Sensitive; Resistant", "conditions": "SW 1990, PANC Ca", "protocol": "as §1, §2"}, "[3]": {"system": "humen fresh naïve PBMC", "test": "Cell killing, fresh naïve PBMC", "type": "cell-based, human", "set-up": "key: Sensitive; Resistant", "conditions": "3 donors", "protocol": "as §1, §2"}, "[4]": {"system": "HT-29 cells", "test": "HT-29 cell-killing assay", "type": "cell-based, human", "set-up": "key to Sensitive/ Resistant: Sensitive; Resistant", "protocol": "Therefore, the HT-29 cell line may be used to determine if test MET-ADCs can kill MET overexpressing tumor cells in vitro.\nas §1, §2"}, "[5]": {"system": "EBC-1", "test": "Cell killing, EBC-1", "type": "cell-based, human", "set-up": "key: Sensitive; Resistant", "conditions": "EBC-1, NSCLC", "protocol": "as §1, §2"}, "[6]": {"system": "MET expressing tumor cells", "test": "Correlation of tumor cell MET expression level and sensitivity to MET-ADC", "type": "cell-based", "protocol": "as §1, §2"}, "[7]": {"system": "PC3", "test": "Cell killing, PC3", "type": "cell-based, human", "set-up": "key: Sensitive; Resistant", "conditions": "PC3, Prostatic Ca", "protocol": "as §1, §2"}, "[8]": {"system": "Hs 746T", "test": "Cell killing, Hs 746T", "type": "cell-based, human", "set-up": "key: Sensitive; Resistant", "conditions": "Gastric Ca", "protocol": "as §1, §2"}, "[9]": {"system": "pan-AKT phosphorylation (pAKT) in Caki-1 cells", "test": "Phosphor-AKT bioassay for MET agonist activity in Caki-1 cells", "type": "cell-based", "conditions": "5 μg/mL", "protocol": "Because it has been reported that MET agonistic antibodies increased hepatocyte proliferation and toxicity, a phosphor-AKT assay may be used to test MET-ADCs for MET agonist activity. Briefly stated, Caki-1 cells may be starved overnight in serum-free medium with 0.1% BSA and then treated with ADCs or naked MET antibodies at 5 μg/mL for the desired durations. Cell lysates may be analyzed for phosphorylation of pan-AKT by MSD ELISA, for example."}, "[10]": {"system": "pancreatic cancer PDX tumors", "test": "Pancreatic cancer patient-derived xenograft (PDX) models", "type": "in vivo, mouse", "conditions": "5 mg/kg weekly, four doses", "from_the_text": "(§3) Body weight can also be assessed regularly.\nPancreatic tumors are known in the art to overexpress MET and have more than 90% KRAS mutations (Yabar, C. S. and Winter, J. M., Gastroenterol Clin N Am 45: 429-445 (2016)). Pancreatic tumor samples from 40 human pancreatic cancer patients were individually implanted into different immunocompromised mice (i.e., each mouse carried one tumor derived from a patient's […] tumor) essentially as described above in this Example 12."}, "[11]": {"system": "CXF-269L", "test": "Cell killing, CXF-269L", "type": "cell-based, human", "set-up": "key to Sensitive/ Resistant: Sensitive; Resistant", "protocol": "as §1, §2"}, "[12]": {"system": "T47D", "test": "Cell killing, T47D", "type": "cell-based, human", "set-up": "key: Sensitive; Resistant", "conditions": "Breast Ca", "protocol": "as §1, §2"}, "[13]": {"system": "colorectal cancer PDX tumors", "test": "Colorectal cancer PDX models", "type": "in vivo, mouse", "conditions": "1 or 3 mg/kg weekly, four doses", "from_the_text": "as §3\nColorectal tumor samples from 37 human colorectal cancer patients were individually implanted into different immunocompromised mice (i.e., each mouse carried one tumor derived from a patient's […] tumor) essentially as described above in this Example 13."}, "[14]": {"system": "RKO", "test": "RKO cell-killing assay", "type": "cell-based, human", "conditions": "RKO (BRAF, PIK3) colon cancer cells", "protocol": "as §1, §2"}, "[15]": {"system": "H1993", "test": "Cell killing, H1993", "type": "cell-based, human", "set-up": "key: Sensitive; Resistant", "conditions": "H1993, NSCLC", "protocol": "as §1, §2"}, "[16]": {"system": "SNU869", "test": "Cell killing, SNU869", "type": "cell-based, human", "set-up": "key: Sensitive; Resistant", "conditions": "SNU869, Cholangiocarcinoma", "protocol": "as §1, §2"}, "[17]": {"system": "MiaPaca-2", "test": "Cell killing, MiaPaca-2", "type": "cell-based, human", "set-up": "key: Sensitive; Resistant", "conditions": "MiaPaca-2, PANC Ca", "protocol": "as §1, §2"}}, "note": "“Also recorded” adds a separate entry of the source."}
{"substance": "MET-ADC#1: emibetuzumab lysine-conjugated via (2,5-dioxopyrrolidin-1-yl) 2-azidoacetate and Octyne-β-Glucn-MMAE", "values": [{"measurement": "Sensitive/ Resistant", "setting": "[1]", "result": "R"}, {"measurement": "Sensitive/ Resistant", "setting": "[2]", "result": "R"}, {"measurement": "Sensitive/ Resistant", "setting": "[3]", "result": "R"}, {"measurement": "Sensitive/ Resistant", "setting": "[4]; HT29, Colorectal Ca", "result": "S"}, {"measurement": "cell killing activity in HT-29 cells", "setting": "[4]; HT-29 cells", "result": "kills MET expressing HT-29 tumor cells better than the parental anti-MET antibody, emibetuzumab, free MMAE, or a combination of emibetuzumab and free MMAE; also recorded: highly potent in killing HT-29 cells"}, {"measurement": "greater potency in killing HT-29 tumors cells as compared to ABBV-399", "setting": "[4]; HT-29 cells", "result": 200, "unit": "fold"}, {"measurement": "Sensitive/ Resistant", "setting": "[5]", "result": "S"}, {"measurement": "killing activity compared with MET-ADC #6", "setting": "[6]; similar experiments using other cells", "result": "superior killing activity than MET-ADC #6"}, {"measurement": "approximate threshold of MET cell surface density for tumor cell killing", "setting": "[6]; tumor cells sensitive to MMAE, not secreting HGF", "result": "> 32,000 receptor per cells"}, {"measurement": "Sensitive/ Resistant", "setting": "[7]", "result": "S"}, {"measurement": "Sensitive/ Resistant", "setting": "[8]", "result": "S"}, {"measurement": "MET agonist activity (induction of pan-AKT phosphorylation)", "setting": "[9]", "result": "same low to no agonist activity as its unconjugated parental antibody, emibetuzumab; also recorded: does not have increased agonist activity as compared with emibetuzumab"}, {"measurement": "DCR: disease control rate (CR+PR+SD over total 40)", "setting": "[10]", "result": 60, "unit": "%"}, {"measurement": "PD: progressive disease (% Delta T/C>10%), number of PDX", "setting": "[10]; total 40", "result": 16}, {"measurement": "PR: partial response (% Regression<=−50% and tumor volume>14 mm^3), number of PDX", "setting": "[10]; total 40", "result": 9}, {"measurement": "effect on volume of pancreatic cancer PDX tumors", "setting": "[10]; vs control hIgG4-ADC", "result": "profoundly reduced the volume of the pancreatic cancer PDX tumors"}, {"measurement": "cell killing activity in CXF-269L cells", "setting": "[11]; CXF-269L (TP53) colon cancer cells", "result": "killed"}, {"measurement": "Sensitive/ Resistant", "setting": "[11]; CXF-269L, Colorectal Ca", "result": "S"}, {"measurement": "Sensitive/ Resistant", "setting": "[12]", "result": "R"}, {"measurement": "Complete Response (CR)", "setting": "[13]; 37 PDX", "result": 5.4, "unit": "%"}, {"measurement": "activity in colorectal cancer PDX models", "setting": "[13]; vs control hIgG4-ADC", "result": "little activity"}, {"measurement": "cell killing activity in RKO cells", "setting": "[14]", "result": "killed; also recorded: highly potent in killing RKO cells"}, {"measurement": "Sensitive/ Resistant", "setting": "[15]", "result": "S"}, {"measurement": "Sensitive/ Resistant", "setting": "[16]", "result": "S"}, {"measurement": "Sensitive/ Resistant", "setting": "[17]", "result": "R"}]}
